Measurements: ChEMBL document CHEMBL1147421, “Diamine derivatives with antiparasitic activities” (Bioorg Med Chem Lett, 2004)
Where “and” joins values, the source holds several entries; their conditions need not be identical. Equal entries are not always repeated.

Experiments:
[1] = Effective concentration expressed as antiparasitic activity against Leishmania promastigotes (Leishmania donovani); NA = Not active; assay type: functional
Plasmodium falciparum [2] = test: Antiparasitic activity against chloroquine-resistant Plasmodium falciparum W2; assay type: functional, organism-based
Plasmodium falciparum [3] = test: Antiparasitic activity against Plasmodium falciparum D6; assay type: functional, organism-based
[4] = Antiparasitic activity against Leishmania promastigotes (Leishmania donovani); assay type: functional

NCCCCN(Cc1ccccc1)Cc1ccncc1.O=C(O)C(F)(F)F
EC50 [1]: Not Active
EC50 (Plasmodium falciparum [2]): Not Active
EC50 (Plasmodium falciparum [3]): Not Active

COc1ccc(CN(CCCCN)Cc2ccccc2)cc1OC.O=C(O)C(F)(F)F
EC50 [4]: 8.36 µM
EC50 (Plasmodium falciparum [2]; Plasmodium falciparum): 3.62 µM
EC50 (Plasmodium falciparum [3]): Not Active

CCCCN(CCCC)CCCN.O=C(O)C(F)(F)F
EC50 [4]: 4.66 µM
EC50 (Plasmodium falciparum [2]): Not Active
EC50 (Plasmodium falciparum [3]; Plasmodium falciparum): 6.33 µM

NCCCCN(Cc1ccc(OCCc2ccccc2)cc1)Cc1ccc(OCCc2ccccc2)cc1.O=C(O)C(F)(F)F
EC50 [4]: 13 µM and 27 µM
EC50 (Plasmodium falciparum [2]): Not Active
EC50 (Plasmodium falciparum [3]): 8.68 µM
EC50 (Plasmodium falciparum [3]; Plasmodium falciparum): 7.43 µM

COc1ccc(CN(CCCCN)Cc2ccc(OC)cc2)cc1.O=C(O)C(F)(F)F
EC50 [4]: 10.6 µM
EC50 (Plasmodium falciparum [2]; Plasmodium falciparum): 6.78 µM
EC50 (Plasmodium falciparum [3]): Not Active

NCCCCN(Cc1ccc(O)cc1)Cc1ccc(O)cc1.O=C(O)C(F)(F)F
EC50 [1]: Not Active
EC50 (Plasmodium falciparum [2]): Not Active
EC50 (Plasmodium falciparum [3]): Not Active

COc1ccc(CN(CCCN)Cc2ccc(OC)cc2OC)c(OC)c1.O=C(O)C(F)(F)F
EC50 [4]: 20.5 µM
EC50 (Plasmodium falciparum [2]; Plasmodium falciparum): 9.42 µM
EC50 (Plasmodium falciparum [3]): Not Active

CCCCOc1ccc(CN(CCCN)Cc2ccc(OCCCC)cc2)cc1
EC50 [4]: 1.22 µM and 1.27 µM
EC50 (Plasmodium falciparum [2]): 6.44 µM
EC50 (Plasmodium falciparum [2]; Plasmodium falciparum): 6.64 µM
EC50 (Plasmodium falciparum [3]): 4.1 µM
EC50 (Plasmodium falciparum [3]; Plasmodium falciparum): 4.37 µM

Cc1ccc(COc2ccc(CN(CCCN)Cc3ccc(OCc4ccc(C)cc4)cc3)cc2)cc1
EC50 [4]: 1.2 µM and 1.07 µM
EC50 (Plasmodium falciparum [2]): 4.6 µM
EC50 (Plasmodium falciparum [2]; Plasmodium falciparum): 3.59 µM
EC50 (Plasmodium falciparum [3]): 1.41 µM
EC50 (Plasmodium falciparum [3]; Plasmodium falciparum): 1.42 µM

COc1ccc(OC)c(CN(CCCCN)Cc2cc(OC)ccc2OC)c1.O=C(O)C(F)(F)F
EC50 [4]: 5.37 µM
EC50 (Plasmodium falciparum [2]): Not Active
EC50 (Plasmodium falciparum [3]): Not Active

COc1ccc(CN(CCCN)Cc2ccccc2)cc1.O=C(O)C(F)(F)F
EC50 [4]: 4.52 µM
EC50 (Plasmodium falciparum [2]): Not Active
EC50 (Plasmodium falciparum [3]): Not Active

NCCCN(Cc1ccc(OCc2c(F)c(F)c(F)c(F)c2F)cc1)Cc1ccc(OCc2c(F)c(F)c(F)c(F)c2F)cc1
EC50 [4]: 3.81 µM and 1.95 µM
EC50 (Plasmodium falciparum [2]): 3.29 µM
EC50 (Plasmodium falciparum [2]; Plasmodium falciparum): 3.16 µM
EC50 (Plasmodium falciparum [3]): 2.68 µM
EC50 (Plasmodium falciparum [3]; Plasmodium falciparum): 2.24 µM

NCCCCN(Cc1ccc(Br)o1)Cc1ccc(Br)o1.O=C(O)C(F)(F)F
EC50 [4]: 19.2 µM
EC50 (Plasmodium falciparum [2]): Not Active
EC50 (Plasmodium falciparum [3]): Not Active

NCCCCN(Cc1ccc(OCc2ccccc2)c(OCc2ccccc2)c1)Cc1ccc(OCc2ccccc2)c(OCc2ccccc2)c1
EC50 [4]: 1.86 µM
EC50 (Plasmodium falciparum [2]; Plasmodium falciparum): 2.23 µM
EC50 (Plasmodium falciparum [3]; Plasmodium falciparum): 3.47 µM

NCCCCN(Cc1ccc(OCc2c(F)c(F)c(F)c(F)c2F)cc1)Cc1ccc(OCc2c(F)c(F)c(F)c(F)c2F)cc1
EC50 [4]: 2.52 µM and 2.97 µM
EC50 (Plasmodium falciparum [2]): 2.07 µM
EC50 (Plasmodium falciparum [2]; Plasmodium falciparum): 2.16 µM
EC50 (Plasmodium falciparum [3]; Plasmodium falciparum): 0.68 µM

NCCCN(Cc1ccccc1)Cc1ccc(Cc2ccc(Br)o2)cc1.O=C(O)C(F)(F)F
EC50 [4]: 20.6 µM
EC50 (Plasmodium falciparum [2]; Plasmodium falciparum): 5.72 µM
EC50 (Plasmodium falciparum [3]): Not Active

NCCCN(Cc1ccc(OCc2ccc(Br)cc2)cc1)Cc1ccc(OCc2ccc(Br)cc2)cc1
EC50 [4]: 0.91 µM and 0.88 µM
EC50 (Plasmodium falciparum [2]): 2.25 µM
EC50 (Plasmodium falciparum [2]; Plasmodium falciparum): 2.44 µM
EC50 (Plasmodium falciparum [3]): 1.23 µM
EC50 (Plasmodium falciparum [3]; Plasmodium falciparum): 1.14 µM

COc1ccc(CN(CCCN)Cc2ccc(OC)c(O)c2)cc1O.O=C(O)C(F)(F)F
EC50 [1]: Not Active
EC50 (Plasmodium falciparum [2]): Not Active
EC50 (Plasmodium falciparum [3]): Not Active

COc1ccc(CN(CCCCN)Cc2ccc(OC)c(O)c2)cc1O.O=C(O)C(F)(F)F
EC50 [1]: Not Active
EC50 (Plasmodium falciparum [2]): Not Active
EC50 (Plasmodium falciparum [3]): Not Active

NCCCN(Cc1ccc(Br)o1)Cc1ccc(Br)o1.O=C(O)C(F)(F)F
EC50 [4]: 19.8 µM
EC50 (Plasmodium falciparum [2]): Not Active
EC50 (Plasmodium falciparum [3]): Not Active

CC(C)c1ccc(CN(CCCN)Cc2ccc(C(C)C)cc2)cc1.O=C(O)C(F)(F)F
EC50 [4]: 2.65 µM
EC50 (Plasmodium falciparum [2]; Plasmodium falciparum): 9.5 µM
EC50 (Plasmodium falciparum [3]): Not Active

COc1ccc(CN(CCCCN)Cc2ccccc2)cc1.O=C(O)C(F)(F)F
EC50 [4]: 1.45 µM
EC50 (Plasmodium falciparum [2]; Plasmodium falciparum): 2.23 µM
EC50 (Plasmodium falciparum [3]): Not Active

NCCCCN(Cc1ccccc1)Cc1ccccc1.O=C(O)C(F)(F)F
EC50 [4]: 26.2 µM
EC50 (Plasmodium falciparum [2]): Not Active
EC50 (Plasmodium falciparum [3]): Not Active

CC(C)c1ccc(CN(CCCCN)Cc2ccc(C(C)C)cc2)cc1.O=C(O)C(F)(F)F
EC50 [4]: 3 µM
EC50 (Plasmodium falciparum [2]; Plasmodium falciparum): 7.29 µM
EC50 (Plasmodium falciparum [3]): Not Active

NCCCN(Cc1ccc(OCCCc2ccccc2)cc1)Cc1ccc(OCCCc2ccccc2)cc1
EC50 [4]: 0.94 µM and 1 µM
EC50 (Plasmodium falciparum [2]): 3.44 µM
EC50 (Plasmodium falciparum [2]; Plasmodium falciparum): 5.34 µM
EC50 (Plasmodium falciparum [3]): 2.01 µM
EC50 (Plasmodium falciparum [3]; Plasmodium falciparum): 1.88 µM

CC1=C2[C@H]3OC(=O)[C@@H](C)[C@@H]3[C@@H](O)C[C@@]2(C)C=CC1=O
EC50 (Plasmodium falciparum [2]; Plasmodium falciparum): 0.02 µM
EC50 (Plasmodium falciparum [3]; Plasmodium falciparum): 0.02 µM

NCCCN(Cc1ccc(O)cc1)Cc1ccc(O)cc1.O=C(O)C(F)(F)F
EC50 [1]: Not Active
EC50 (Plasmodium falciparum [2]): Not Active
EC50 (Plasmodium falciparum [3]): Not Active

CC(C)(C)c1ccc(COc2ccc(CN(CCCN)Cc3ccc(OCc4ccc(C(C)(C)C)cc4)cc3)cc2)cc1
EC50 [4]: 2.13 µM and 1.37 µM
EC50 (Plasmodium falciparum [2]): 4.04 µM
EC50 (Plasmodium falciparum [2]; Plasmodium falciparum): 3.85 µM
EC50 (Plasmodium falciparum [3]): 2.02 µM
EC50 (Plasmodium falciparum [3]; Plasmodium falciparum): 2.52 µM

COc1cccc(CN(CCCN)Cc2cccc(OC)c2)c1.O=C(O)C(F)(F)F
EC50 [4]: 12.6 µM
EC50 (Plasmodium falciparum [2]): Not Active
EC50 (Plasmodium falciparum [3]): Not Active

COc1ccc(CN(CCCN)Cc2ccccc2)cc1OC.O=C(O)C(F)(F)F
EC50 [4]: 3.97 µM
EC50 (Plasmodium falciparum [2]; Plasmodium falciparum): 5.6 µM
EC50 (Plasmodium falciparum [3]): Not Active
